Assay [1] addresses T1, Ephrin type-A receptor 8 (Homo sapiens) (UniProt P29322).
T1 sequence (whole entry): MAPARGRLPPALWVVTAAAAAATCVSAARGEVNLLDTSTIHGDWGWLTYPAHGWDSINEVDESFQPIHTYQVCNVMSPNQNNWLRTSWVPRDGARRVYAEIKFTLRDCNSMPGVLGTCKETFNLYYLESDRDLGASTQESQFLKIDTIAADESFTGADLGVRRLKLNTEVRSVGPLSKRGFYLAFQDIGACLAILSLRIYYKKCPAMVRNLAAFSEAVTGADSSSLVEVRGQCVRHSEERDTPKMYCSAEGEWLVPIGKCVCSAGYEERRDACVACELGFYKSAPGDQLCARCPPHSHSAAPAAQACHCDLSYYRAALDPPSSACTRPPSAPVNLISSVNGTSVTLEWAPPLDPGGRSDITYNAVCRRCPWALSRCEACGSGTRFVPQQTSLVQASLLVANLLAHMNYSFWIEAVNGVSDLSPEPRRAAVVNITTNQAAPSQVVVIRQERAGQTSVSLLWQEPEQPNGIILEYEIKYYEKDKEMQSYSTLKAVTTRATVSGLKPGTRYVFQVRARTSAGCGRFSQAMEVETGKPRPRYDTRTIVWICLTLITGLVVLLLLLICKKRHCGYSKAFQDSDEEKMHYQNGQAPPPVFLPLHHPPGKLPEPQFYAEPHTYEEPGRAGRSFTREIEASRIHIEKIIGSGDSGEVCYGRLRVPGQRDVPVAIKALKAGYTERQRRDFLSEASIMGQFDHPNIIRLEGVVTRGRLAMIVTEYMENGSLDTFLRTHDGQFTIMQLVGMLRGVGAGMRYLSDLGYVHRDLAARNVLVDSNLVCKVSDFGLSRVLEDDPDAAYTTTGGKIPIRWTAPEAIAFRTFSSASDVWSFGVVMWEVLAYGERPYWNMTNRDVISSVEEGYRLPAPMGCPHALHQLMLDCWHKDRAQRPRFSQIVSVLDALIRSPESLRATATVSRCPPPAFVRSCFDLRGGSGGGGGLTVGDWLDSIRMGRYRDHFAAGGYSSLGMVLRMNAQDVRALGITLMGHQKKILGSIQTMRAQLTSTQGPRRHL
The settings on record: at 10 µM.

For assay [2], the target named is Leukocyte tyrosine kinase receptor (Homo sapiens, UniProt P29376). The assay can be described thus: Selectivity interaction (KinomeScan (DiscoverX)) EUB0000092b LTK. The conditions noted are these: at 10 µM.
Assay [3] has as its target N-lysine methyltransferase SMYD2 (Homo sapiens) (UniProt Q9NRG4). The assay can be described thus: Selectivity interaction (Methyltransferase screen (radiometric assays, panel of 8 PRMTs, 21 protein lysine methyltransferases, 3 DNA methyltransferases, and one RNA methyltransferase)) EUB0000271b SMYD2.
Assay [4] deals with T2, Bone morphogenetic protein receptor type-2 (Homo sapiens) (UniProt Q13873).
T2 sequence (whole entry): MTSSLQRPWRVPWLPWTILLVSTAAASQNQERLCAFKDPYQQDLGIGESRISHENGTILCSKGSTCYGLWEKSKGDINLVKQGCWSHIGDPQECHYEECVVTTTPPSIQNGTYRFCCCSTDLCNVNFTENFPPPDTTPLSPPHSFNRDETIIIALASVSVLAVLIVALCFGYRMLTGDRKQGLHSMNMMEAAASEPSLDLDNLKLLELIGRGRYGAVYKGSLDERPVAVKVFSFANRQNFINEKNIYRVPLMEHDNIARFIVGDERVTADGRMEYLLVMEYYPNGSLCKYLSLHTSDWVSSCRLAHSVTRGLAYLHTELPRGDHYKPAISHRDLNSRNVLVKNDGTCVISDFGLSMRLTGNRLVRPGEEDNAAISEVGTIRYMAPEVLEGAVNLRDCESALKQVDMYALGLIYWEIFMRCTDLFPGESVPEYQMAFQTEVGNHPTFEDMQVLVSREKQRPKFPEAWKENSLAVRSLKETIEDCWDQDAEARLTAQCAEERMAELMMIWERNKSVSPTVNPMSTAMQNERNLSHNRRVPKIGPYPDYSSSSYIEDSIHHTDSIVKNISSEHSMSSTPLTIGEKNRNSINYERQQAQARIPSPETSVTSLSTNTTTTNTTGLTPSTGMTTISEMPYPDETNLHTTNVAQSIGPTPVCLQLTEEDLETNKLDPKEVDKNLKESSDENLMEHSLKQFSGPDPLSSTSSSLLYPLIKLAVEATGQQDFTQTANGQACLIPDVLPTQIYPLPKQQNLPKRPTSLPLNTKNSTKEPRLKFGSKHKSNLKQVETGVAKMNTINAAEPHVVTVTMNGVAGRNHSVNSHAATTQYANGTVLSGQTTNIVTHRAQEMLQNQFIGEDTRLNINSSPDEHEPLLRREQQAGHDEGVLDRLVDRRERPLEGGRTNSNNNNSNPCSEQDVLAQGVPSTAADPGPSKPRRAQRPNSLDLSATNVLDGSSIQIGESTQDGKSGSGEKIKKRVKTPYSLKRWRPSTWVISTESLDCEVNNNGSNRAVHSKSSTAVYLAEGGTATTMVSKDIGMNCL
The assay can be described thus: Selectivity interaction (KinomeScan (DiscoverX)) EUB0000595a BMPR2. The settings on record: at 10 µM.

The target of assay [5] is T3, Mitogen-activated protein kinase kinase kinase 2 (Homo sapiens) (UniProt Q9Y2U5).
T3 sequence (whole entry): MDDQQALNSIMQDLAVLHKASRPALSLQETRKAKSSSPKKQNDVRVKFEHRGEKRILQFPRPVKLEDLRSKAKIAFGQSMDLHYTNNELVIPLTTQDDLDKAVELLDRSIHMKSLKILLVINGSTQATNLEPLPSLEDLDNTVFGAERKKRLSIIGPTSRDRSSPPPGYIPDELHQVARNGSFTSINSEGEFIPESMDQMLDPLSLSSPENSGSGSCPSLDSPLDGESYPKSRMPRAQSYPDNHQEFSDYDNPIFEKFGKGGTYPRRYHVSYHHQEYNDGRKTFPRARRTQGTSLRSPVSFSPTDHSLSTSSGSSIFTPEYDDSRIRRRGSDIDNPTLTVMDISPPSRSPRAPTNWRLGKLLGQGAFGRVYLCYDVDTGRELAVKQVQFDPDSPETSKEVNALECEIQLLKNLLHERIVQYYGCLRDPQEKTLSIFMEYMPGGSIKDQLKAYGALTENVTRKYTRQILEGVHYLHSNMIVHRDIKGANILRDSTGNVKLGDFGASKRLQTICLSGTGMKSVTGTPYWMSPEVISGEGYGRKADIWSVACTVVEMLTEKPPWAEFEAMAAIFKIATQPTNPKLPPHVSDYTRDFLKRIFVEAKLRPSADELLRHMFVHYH
The assay can be described thus: Selectivity interaction (ActivX KiNativ screen (ex vivo kinase selectivity in human PBMCs)) EUB0001619a MAP3K2. The settings on record: PBMC, at 1 µM. The assay is classed as cell-based.

N-lysine methyltransferase SMYD2 (Homo sapiens), sequence (Q9NRG4 whole entry): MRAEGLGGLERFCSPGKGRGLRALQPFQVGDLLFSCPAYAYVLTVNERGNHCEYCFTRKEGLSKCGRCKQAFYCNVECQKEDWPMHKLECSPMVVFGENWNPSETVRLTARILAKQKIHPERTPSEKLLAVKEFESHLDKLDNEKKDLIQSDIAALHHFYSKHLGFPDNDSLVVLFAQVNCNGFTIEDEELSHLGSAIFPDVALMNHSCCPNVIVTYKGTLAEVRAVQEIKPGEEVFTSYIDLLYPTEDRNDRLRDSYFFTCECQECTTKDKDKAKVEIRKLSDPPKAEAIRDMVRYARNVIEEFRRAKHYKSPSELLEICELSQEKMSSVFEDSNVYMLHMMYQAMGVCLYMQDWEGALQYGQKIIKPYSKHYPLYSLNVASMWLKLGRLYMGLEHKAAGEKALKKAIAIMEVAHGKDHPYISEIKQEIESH
Leukocyte tyrosine kinase receptor, sequence (P29376 whole entry): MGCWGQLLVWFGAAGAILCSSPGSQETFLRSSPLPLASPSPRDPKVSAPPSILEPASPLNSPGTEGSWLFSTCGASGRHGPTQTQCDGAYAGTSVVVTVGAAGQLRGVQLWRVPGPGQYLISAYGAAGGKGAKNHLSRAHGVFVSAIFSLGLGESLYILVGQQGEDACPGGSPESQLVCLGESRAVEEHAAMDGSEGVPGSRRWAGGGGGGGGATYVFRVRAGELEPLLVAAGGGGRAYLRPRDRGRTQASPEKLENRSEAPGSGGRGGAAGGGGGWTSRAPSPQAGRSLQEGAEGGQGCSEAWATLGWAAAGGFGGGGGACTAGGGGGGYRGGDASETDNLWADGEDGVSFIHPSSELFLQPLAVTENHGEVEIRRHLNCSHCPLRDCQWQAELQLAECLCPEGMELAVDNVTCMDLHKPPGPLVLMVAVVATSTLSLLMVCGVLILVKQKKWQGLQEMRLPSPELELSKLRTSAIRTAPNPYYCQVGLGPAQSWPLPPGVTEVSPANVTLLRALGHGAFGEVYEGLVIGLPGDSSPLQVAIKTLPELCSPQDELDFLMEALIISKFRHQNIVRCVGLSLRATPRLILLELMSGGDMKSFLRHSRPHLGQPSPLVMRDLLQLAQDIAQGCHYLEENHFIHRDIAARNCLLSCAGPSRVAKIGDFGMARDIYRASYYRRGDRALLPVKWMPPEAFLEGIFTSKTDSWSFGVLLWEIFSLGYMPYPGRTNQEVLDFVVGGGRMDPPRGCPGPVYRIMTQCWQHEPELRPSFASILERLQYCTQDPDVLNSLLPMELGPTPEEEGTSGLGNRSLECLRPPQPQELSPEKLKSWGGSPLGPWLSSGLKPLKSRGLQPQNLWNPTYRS

The compound `Cc1cc([C@@H](C)Nc2ccccc2C(=O)O)c2nc(N3CCOCC3)cc(=O)n2c1` [AZD-6482] displayed a % of control in assay [1] of 96%.

Compound `CCC(=O)N1CCN(c2ccc(-n3c(=O)ccc4cnc5ccc(-c6cnc7ccccc7c6)cc5c43)cc2C(F)(F)F)CC1` displayed a % of control in assay [2] of 77%.

As for `Cc1cc(C)cc([C@@H]2c3cc(C)ccc3NC(=O)CN2C(=O)c2ccc(Br)s2)c1`, the % of activity worked out at 101% in assay [3] (at 1 µM) and 96.7% in assay [3] (at 10 µM).

For `COCC(=O)NC/C=C/c1ccc2ncnc(Nc3ccc(Oc4ccc(C)nc4)c(C)c3)c2c1` [CP-724714], the % of control in assay [4] is 74%.

Compound `N#Cc1cccc(-c2c[nH]c3ncnc(N4CCOCC4)c23)c1` gave a % of inhibition in assay [5] of 15%.

The record behind these values is ChEMBL document CHEMBL5465560, “Selectivity Literature for EUbOPEN Chemogenomic Library” (2024).
